Assay results published in publication PMC11096235, “Membrane-bound chemoreception of bitter bile acids and peptides is mediated by the same subset of bitter taste receptors” (Cellular and Molecular Life Sciences: CMLS, 2024).
Peptide text beside a SMILES is read from it.

Legend:
Assay in all cases: FLIPR calcium mobilization (Fluo-4), agonist activation
Format in all cases: cell-based
Conditions in all cases: HEK 293T-Gα16gust44 cells, pH 7.4
[1] = target: T1, Tas2r29 (xtTas2r29) (Xenopus tropicalis, UniProt Q2AB56)
T1 construct: full length, N-terminal sst3 export tag, C-terminal hsv tag; HEK 293T-Galpha16gust44
T1 sequence (Q2AB56 1-290): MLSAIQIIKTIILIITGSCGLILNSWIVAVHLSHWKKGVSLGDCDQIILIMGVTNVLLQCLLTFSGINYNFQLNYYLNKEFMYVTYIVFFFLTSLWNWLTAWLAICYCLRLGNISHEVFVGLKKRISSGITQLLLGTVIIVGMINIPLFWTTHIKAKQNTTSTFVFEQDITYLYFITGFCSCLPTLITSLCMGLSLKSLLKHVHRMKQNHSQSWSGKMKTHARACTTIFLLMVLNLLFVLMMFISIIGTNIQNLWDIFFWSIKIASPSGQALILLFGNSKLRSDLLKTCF

[2] = target: T2, zebrafish receptor Tas2r4 (Danio rerio, UniProt Q58WW8)
T2 construct: gene tas2r203; full length, N-terminal sst3 export tag, C-terminal hsv tag; HEK 293T-Galpha16gust44
T2 sequence (Q58WW8 1-305): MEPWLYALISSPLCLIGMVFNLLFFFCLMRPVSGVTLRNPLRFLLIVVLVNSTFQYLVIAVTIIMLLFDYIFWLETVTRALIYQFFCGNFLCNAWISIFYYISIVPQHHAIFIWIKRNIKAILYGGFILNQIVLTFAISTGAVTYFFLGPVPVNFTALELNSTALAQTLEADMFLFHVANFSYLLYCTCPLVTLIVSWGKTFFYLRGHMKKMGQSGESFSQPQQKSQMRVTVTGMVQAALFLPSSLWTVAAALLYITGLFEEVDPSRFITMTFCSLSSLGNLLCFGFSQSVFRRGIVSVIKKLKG

[3] = target: T3, chicken Tas2r2 (ggTas2r2) (Gallus gallus, UniProt A0A1D5PXM6)
T3 construct: gene LOC101747503; full length, N-terminal sst3 export tag, C-terminal hsv tag; HEK 293T-Galpha16gust44
T3 sequence (A0A1D5PXM6 1-311): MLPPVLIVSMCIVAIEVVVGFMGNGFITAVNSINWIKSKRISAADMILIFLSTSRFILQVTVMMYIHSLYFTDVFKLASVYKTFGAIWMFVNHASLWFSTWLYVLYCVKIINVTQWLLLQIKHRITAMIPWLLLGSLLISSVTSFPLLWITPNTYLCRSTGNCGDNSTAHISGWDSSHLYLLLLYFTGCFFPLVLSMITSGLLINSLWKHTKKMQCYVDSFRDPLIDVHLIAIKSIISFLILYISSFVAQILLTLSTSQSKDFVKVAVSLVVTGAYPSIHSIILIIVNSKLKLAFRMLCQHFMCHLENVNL

N[C@@H](Cc1c[nH]c2ccccc12)C(=O)N[C@@H](Cc1c[nH]c2ccccc12)C(=O)N[C@@H](Cc1c[nH]c2ccccc12)C(=O)O [L-Trp-Trp-Trp] (H-Trp-Trp-Trp-OH)
dF/F [1]: Tas2r29 exhibited only weak, yet significant, responses to L-Trp-Trp-Trp as well as to CA and GCA

N[C@@H](Cc1c[nH]c2ccccc12)C(=O)O [L-Trp]
dF/F [2]: Subsequent testing with L- and D-Trp revealed responsiveness to these amino acids

C[C@H](CCC(=O)O)[C@H]1CC[C@H]2[C@@H]3[C@H](O)C[C@@H]4C[C@H](O)CC[C@]4(C)[C@H]3C[C@H](O)[C@]12C [cholic acid]
dF/F [3]: chicken Tas2r2 were only significant for the highest concentrations of the two bile acids
